{"source": "paper PMC4339887", "about": "“Selective Sirt2 inhibition by ligand-induced rearrangement of the active site” (Nature Communications, 2015)", "key": {"human Sirt6": {"target": "T1, human Sirt6 (Homo sapiens, UniProt Q8N6T7)", "T1 construct": "human Sirt6_13–308 (Uniprot: Q8N6T7); made in house", "T1 sequence (Q8N6T7 13-308)": "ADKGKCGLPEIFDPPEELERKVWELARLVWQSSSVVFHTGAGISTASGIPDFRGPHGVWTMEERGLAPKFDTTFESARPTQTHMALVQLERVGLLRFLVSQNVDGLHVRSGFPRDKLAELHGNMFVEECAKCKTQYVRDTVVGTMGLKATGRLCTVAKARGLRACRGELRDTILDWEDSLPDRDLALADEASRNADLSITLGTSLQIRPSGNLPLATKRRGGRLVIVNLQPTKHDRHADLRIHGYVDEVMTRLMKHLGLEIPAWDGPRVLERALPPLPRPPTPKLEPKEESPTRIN", "experiment": "HPLC-based assay, non-labelled myristoyl-lysine peptide", "type": "biochemical", "details": "myristoyl-lysine substrate"}, "Human Sirt2_56–356": {"target": "T2, Human Sirt2_56–356 (Homo sapiens, UniProt Q8IXJ6)", "T2 construct": "Human Sirt2_56–356 (0.2 mg ml^−1 final concentration); His10 (N, cleaved yes); made in house; host or cells: E. coli BL21(DE3)Codonplus RIPL", "T2 sequence (Q8IXJ6 56-356)": "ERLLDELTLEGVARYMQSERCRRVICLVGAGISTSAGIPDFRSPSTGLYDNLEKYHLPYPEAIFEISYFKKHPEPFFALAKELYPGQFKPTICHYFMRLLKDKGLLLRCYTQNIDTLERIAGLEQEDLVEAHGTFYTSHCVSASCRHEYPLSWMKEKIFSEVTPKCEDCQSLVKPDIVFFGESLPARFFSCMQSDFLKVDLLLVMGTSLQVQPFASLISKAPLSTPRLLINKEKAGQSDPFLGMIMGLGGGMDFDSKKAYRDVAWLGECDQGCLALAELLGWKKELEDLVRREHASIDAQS", "experiment": "competition analyses / inhibition kinetics, α-tubulin peptide, HPLC", "type": "biochemical", "details": "NAD+ competition analysis", "description": "The peak areas were integrated and converted to initial velocities calculated from the peak areas as the fraction of deacetylated peptide from total peptide."}, "human Sirt3": {"target": "T3, human Sirt3 (Homo sapiens, UniProt Q9NTG7)", "T3 sequence (Q9NTG7 118-395)": "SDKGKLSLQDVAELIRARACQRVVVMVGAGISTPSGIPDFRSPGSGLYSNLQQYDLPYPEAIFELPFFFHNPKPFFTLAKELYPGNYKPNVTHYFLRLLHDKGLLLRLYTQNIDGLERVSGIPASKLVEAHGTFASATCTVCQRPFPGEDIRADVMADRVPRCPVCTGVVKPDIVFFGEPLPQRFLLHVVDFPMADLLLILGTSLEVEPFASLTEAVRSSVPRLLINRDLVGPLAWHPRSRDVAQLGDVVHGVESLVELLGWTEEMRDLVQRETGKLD", "experiment": "HPLC-based conversion assay, non-labelled acetyl-lysine α-tubulin peptide", "details": "100 μM, acetyl-lysine substrate"}, "human Sirt1": {"target": "T4, human Sirt1 (Homo sapiens, UniProt Q96EB6)", "T4 sequence (Q96EB6 133-747)": "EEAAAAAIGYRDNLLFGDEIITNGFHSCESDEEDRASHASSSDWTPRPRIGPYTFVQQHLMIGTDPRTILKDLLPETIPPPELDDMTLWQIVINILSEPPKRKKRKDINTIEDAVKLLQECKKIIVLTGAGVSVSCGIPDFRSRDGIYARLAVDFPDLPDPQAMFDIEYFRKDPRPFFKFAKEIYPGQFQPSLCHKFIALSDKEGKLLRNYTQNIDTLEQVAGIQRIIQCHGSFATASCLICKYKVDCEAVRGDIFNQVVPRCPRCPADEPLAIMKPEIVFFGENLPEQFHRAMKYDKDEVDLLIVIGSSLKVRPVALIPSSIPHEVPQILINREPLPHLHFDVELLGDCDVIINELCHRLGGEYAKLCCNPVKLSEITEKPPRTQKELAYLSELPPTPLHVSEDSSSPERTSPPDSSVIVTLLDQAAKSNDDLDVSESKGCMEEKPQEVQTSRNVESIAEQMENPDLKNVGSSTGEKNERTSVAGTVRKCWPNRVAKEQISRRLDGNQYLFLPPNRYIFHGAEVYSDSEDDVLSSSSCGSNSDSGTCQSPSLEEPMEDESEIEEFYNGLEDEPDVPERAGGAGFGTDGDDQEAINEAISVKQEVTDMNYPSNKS", "experiment": "HPLC-based conversion assay, non-labelled acetyl-lysine α-tubulin peptide", "details": "read-out: inhibition of Sirt1"}}}
{"smiles": "Cc1cc(C)nc(SCC(=O)Nc2ncc(Cc3cccc4ccccc34)s2)n1", "note": "[SirReal2]", "values": [{"measurement": "inhibition at 200 µM", "setting": "human Sirt6", "value": 19, "unit": "%"}, {"measurement": "mode of inhibition towards NAD+", "setting": "Human Sirt2_56–356", "value": "partially non-competitive"}, {"measurement": "effect on activity of Sirt3", "setting": "human Sirt3", "value": "very little effect"}, {"measurement": "inhibition at 100 µM", "setting": "human Sirt1", "value": 22, "unit": "%"}]}
